Assay results reported in patent US20240376057A1, “2,4-DIOXO-1,2,3,4-TETRAHYDROPYRIMIDINE DERIVATIVES AND THEIR USE IN THE TREATMENT OF TUMORS” (ISTITUTO PASTEUR ITALIA, priority 2021, published 2024).

Key:
[1] = tested on: Med1-MB cells; test: Med1-MB tumor cell proliferation, Trypan Blue exclusion count; assay type: cell-based, mouse; parameters: key to Growth Inhibition (relative inhibitory activity): *** strong; ** middle; * weak; settings: for Growth Inhibition (relative inhibitory activity): 72 h treatment
Procedure: Med1-MB cells (a mouse medulloblastoma cell line kindly provided by Dr Yoon-Jae Cho, Stanford, CA USA and disclosed in Hayden Gephart et al. Journal of Neuro-Oncology (2013) volume 115, pages 161-168) were maintained in DMEM supplemented with 10% FBS and 100 units of penicillin/streptomycin.
Med1-MB cells were cultured in Dulbecco's modified Eagle medium (DMEM) supplemented with 10% FBS, 1 mM penicillin-streptomycin and 1 mM glutamine in a humidified incubator at 37° C. and 5% CO2. […] After 72 hours, cells were trypsinized and counted by trypan blue exclusion method.
To evaluate the effect on tumor growth of compound IPI/01.LF, and derivatives, 1×10^4 Med1-MB cells were seeded in 12-well plate and incubated overnight at 37° C. in a humidified incubator. After 24 h, cells were treated with increasing concentrations of compounds for 72 h. At the end of the experiment, cell proliferation was assayed by Trypan Blue exclusion method. IC50 values were determined by generating a dose-response curves by non-linear regression. Data are expressed as the mean±SD of three independent experiments, each performed in triplicate.

[2] = tested on: LDHA enzyme; test: LDHA enzymatic activity assay: rate of NADH consumption after pyruvate addition, spectrophotometry at 340 nm, in Med1-MB cell supernatant; assay type: biochemical, mouse; parameters: key to LDH Inhibition (relative inhibitory activity): *** strong; ** middle; * weak; settings: dose of 100 μM
Procedure: To evaluate whether the observed anti-proliferative effect of IPI/01.LF and derivatives was a specific consequence of the inhibitory activity on the LDHA enzyme, the inventor performed enzymatic activity assays measuring the rate of NADH consumption following the addition of pyruvate by spectrophotometry at […], as previously described [Miskimins W K, Ahn H J, Kim J Y, Ryu S, Jung Y S, Choi J Y. Synergistic anti-cancer effect of phenformin and oxamate. PLoS One. 2014; 9(1):e85576.].
1×10^5 Med1-MB cells were harvested, suspended in 0.1M KH2PO4 (pH 7.2), 2 mM EDTA and 1 mM dithiothreitol (DTT), sonicated in 300 μL assay buffer (50 mmol/L potassium phosphate, pH 7.4), and centrifuged at 10,000 g for 10 minutes at 4° C. The supernatant was added to 50 mM potassium phosphate (pH 7.4), 2 mM pyruvate, and 20 µM NADH. Absorbance was measured over 10 minutes at 340 nm using a spectrophotometer.

[3] = tested on: Panc1 tumor xenograft; test: Panc1 luciferase xenograft in immunodeficient nude (nu/nu) mice: caliper tumor volume, luminescence, body weight; assay type: in vivo, mouse; settings: for tumor growth in treated mice: 20 mg/Kg in corn oil, intraperitoneally every two days, vs vehicle
Procedure: To evaluate the in vivo therapeutic effects of compound IPI/01.LF studies on immunodeficient nude (nu/nu) mouse models xenografted with the human pancreatic tumor cells Panc1 were performed.
Panc1 cells were stably transduced with 5 MOI of a lentivirus expressing the luciferase gene (pLenti CMV Puro LUC (w168-1)). The lentiviral vector was purchased from Addgene, Watertown, MA 02472 USA (plasmid #17477); Campeau E, et al A versatile viral system for expression and depletion of proteins in mammalian cells PLoS One (2009) 4(8):e6529.
Stably transduced Panc1 cells were subcutaneously implanted in immunocompromised Balb/C nude athymic mice. When the tumors reached the volume of 200 mm^3, mice were treated with either 20 mg/kg of compound IPI/01.LF dissolved in corn oil or with corn oil (vehicle) alone and injected intraperitoneally every two days. Tumor growth was monitored with a caliper every other day. Data are expressed as the mean±SD of three independent experiments, each performed in triplicate.
Since the grafted Panc1 tumor cells express the ectopic luciferase reporter gene, tumor luminescence was used to monitor the tumor growth. Luminescence was measured using IVIS Lumina III In Vivo Imaging System (PerkinElmer).
Mice were intraperitoneally injected with luciferin (RediJect D-Luciferin Bioluminescent Substrate, PerkinElmer) and analyzed by photon emission (bioluminescence).
L of luciferin (15 mg/mL stock)/gram of mouse body weight were injected in the lower left abdominal quadrant of xenografted Balb/C mice with a 25 gauge needle. After 10 minutes, animals were anesthetized with a mixture of oxygen gas and vaporized isoflurane. Once the animals were fully anesthetized, they were positioned within the animal imaging cassette for image acquisition. Data were analyzed utilizing the LivingImage software. Image acquisition was performed at the beginning (T=0) and at the end (T=17) of the experiment and body weights (g) of mice at time of sacrifice were determined.

[4] = tested on: Panc1 cells; test: Panc1 pancreatic tumor cell proliferation, Trypan Blue exclusion; assay type: cell-based, human
Description: The inventor tested compound #1-IPI/01.LF on the proliferation of human pancreatic ductal adenocarcinoma (PDAC) Panc1 cells (American Tissue Cell Culture (ATCC, Manassas, VA, USA); product code: ATCC® CRL-1469™) a human tumor cell line showing a high glycolytic rate (Liu L, Gong L, Zhang Y, Li N. Glycolysis in Panc-1 human pancreatic cancer cells is inhibited by everolimus Experimental and therapeutic medicine (2013) 5: 338-342).
PANC-1 cells were maintained in DMEM supplemented with 10% FBS and 100 units of penicillin/streptomycin. After 72 h, cell proliferation was assayed by Trypan Blue exclusion method. IC50 value was determined by generating a dose-response curves by non-linear regression. Data are expressed as the mean±SD of three independent experiments, each performed in triplicate.

Question: `O=C(Nc1ccccc1F)c1c[nH]c(=O)n(Cc2ccc(F)cc2)c1=O` [#3, 2,4-Dioxo-3-(4-fluorobenzyl)-N-(2-fluorophenyl)-1,2,3,4-tetrahydropyrimidine-5-carboxamide] was tested. Which “Growth Inhibition (relative inhibitory activity)” value [1] did it give?
Answer: **

Question: What about the “LDH Inhibition (relative inhibitory activity)” value [2] of the same compound?
Answer: **

Question: Which “Growth Inhibition (relative inhibitory activity)” value [1] does the source give for `O=C(Nc1cccc(Cl)c1)c1c[nH]c(=O)n(Cc2ccccc2)c1=O` [#2, 2,4-Dioxo-3-benzyl-N-(3-chlorophenyl)-1,2,3,4-tetrahydropyrimidine-5-carboxamide] here?
Answer: *

Question: What about the “LDH Inhibition (relative inhibitory activity)” value [2] of the same compound?
Answer: *

Question: For `NC(=O)c1ccc(NC(=O)c2c[nH]c(=O)n(Cc3ccccc3)c2=O)cc1` [#6, 2,4-Dioxo-3-benzyl-N-(4-carboxamidophenyl)-1,2,3,4-tetrahydropyrimidine-5-carboxamide], which “Growth Inhibition (relative inhibitory activity)” value [1] is on record?
Answer: ***

Question: And the “LDH Inhibition (relative inhibitory activity)” value [2]?
Answer: ***

Question: Which “tumor growth in treated mice” value [3] does the source give for `O=C(Nc1ccccc1)c1c[nH]c(=O)n(Cc2ccccc2F)c1=O` [#1, 2,4-dioxo-N-phenyl-3-(2-fluorobenzyl)-1,2,3,4-tetrahydropyrimidine-5-carboxamide] here?
Answer: did not grow at all

Question: And the “tumor growth in treated mice” value ([3]; listed as IPI/01.LF)?
Answer: significantly lower

Question: What about the weight of mice ([3]; 20 mg/Kg, T=0 to T=17) of the same compound?
Answer: unchanged

Question: What about the “tumor luminescent light signal over time” value ([3]; 20 mg/Kg, T=0 vs T=17 days, IVIS Lumina III) of the same compound?
Answer: significant regression over time

Question: What about the “tumor mass smaller in treated mice compared to controls at end of experiment” value ([3]; 20 mg/Kg, end of experiment) of the same compound?
Answer: 2.5 fold

Question: What about the “mean volume of tumors at end of treatment compared to controls” value ([3]; 20 mg/kg, end of treatment) of the same compound?
Answer: significantly reduced

Question: What about the “Growth Inhibition (relative inhibitory activity)” value [1] of the same compound?
Answer: ***

Question: What about the IC50 ([1]; Mus musculus, 72 h, non-linear regression) of the same compound?
Answer: ~29 µM

Question: And the “values times lower than those obtained with oxamate” value ([1]; vs oxamate)?
Answer: approximately 700 times

Question: And the “LDH Inhibition (relative inhibitory activity)” value [2]?
Answer: ***

Question: What about the “inhibitory effect on LDHA enzymatic activity” value [2] of the same compound?
Answer: marked inhibitory effect

Question: And the IC50 ([4]; Homo sapiens, PANC-1, Panc1 cells, 72 h, non-linear regression)?
Answer: ~23 µM

Question: And the “IC50 range, cell proliferation” value ([4]; Panc1 cells)?
Answer: within the micromolar range

Question: And the “concentration times lower than oxamate for comparable ability to reduce tumor growth” value ([4]; in vitro, vs oxamate)?
Answer: > 700 times

Question: For `O=C(Nc1ccccc1Cl)c1c[nH]c(=O)n(Cc2ccccc2)c1=O` [#4, 2,4-Dioxo-3-benzyl-N-(2-chlorophenyl)-1,2,3,4-tetrahydropyrimidine-5-carboxamide], which “Growth Inhibition (relative inhibitory activity)” value [1] is on record?
Answer: ***

Question: And the “LDH Inhibition (relative inhibitory activity)” value [2]?
Answer: ***

Question: `NC(=O)C(=O)O` [oxamate, reference compound] was tested. Which “concentration lowering in vitro proliferation” value ([1]; 72 h) did it give?
Answer: > 20 mM

Question: What does the source list for `COc1ccc(Cn2c(=O)[nH]cc(C(=O)Nc3ccccc3Cl)c2=O)cc1` [#7, 2,4-Dioxo-3-(4-methoxybenzyl)-N-(2-chlorophenyl)-1,2,3,4-tetrahydropyrimidine-5-carboxamide]?
Answer: Growth Inhibition (relative inhibitory activity) [1]: ***; LDH Inhibition (relative inhibitory activity) [2]: ***
